Tests used:
[1] = test system: platelets in platelet rich plasma (PRP), aggregation induced by ADP; assay: Effect on Platelet Aggregation Induced by Adenosine Diphosphate (ADP); assay type: cell-based; conditions: dose required for complete inhibition of platelet aggregation; human PRP 3×10^8 platelets/ml, ADP final 2.5 μM, 37° C., aggregometer
Procedure: Test 1: Effect on Platelet Aggregation Induced by Adenosine Diphosphate (ADP)
Platelet rich plasma (PRP) which contains 3×10^8 platelets/ml was prepared from human blood. To the 225 μl of PRP, 25 μl of drug solution* was added, and then stirred for 2 minutes at 37° C. To the solution 5 μl of ADP (final 2.5 μM) was added as an aggregation inducer. Aggregation was measured by using an aggregometer (NBS HEMA-TRACER 801). Activity of inhibitor (test compound) was expressed as IC100 value i.e. dose required for complete inhibition of platelet aggregation.
Drug solution* — — — Test compound was dissolved in water.

melting point | SMILES | IC100 [1]
105 to 108 °C | C[C@H](CC(=O)O)NC(=O)[C@@H]1CCCN(C(=O)CCC2CCNCC2)C1.Cl | –
67 °C | Cl.O=C(O)CC(NC(=O)[C@@H]1CCCN(C(=O)CCC2CCNCC2)C1)c1ccccc1 (some centres unmarked) | –
156 to 157 °C | CCCCCC(=O)N[C@@H](CNC(=O)[C@@H]1CCCN(C(=O)CCC2CCNCC2)C1)C(=O)O.Cl | –
70 to 72 °C | Cl.O=C(O)CCNC(=O)C1CCCN(C(=O)CCC2CCNCC2)C1 (centres unmarked) | –
63 to 65 °C | Cl.O=C(O)CCNC(=O)C1CCN(C(=O)CCC2CCNCC2)CC1 | –
73 °C | Cl.O=C(O)CCNC(=O)CC1CCCN(C(=O)CC2CCNCC2)C1 (centres unmarked) | –
79 °C | COC(=O)CCNC(=O)C1CCN(C(=O)CCC2CCN(C(=O)OC(C)(C)C)CC2)CC1 | –

The next lines start with the compound.

SMILES | melting point | IC100 [1]
COc1ccc(CCNC(=O)[C@H](CC(=O)O)NC(=O)[C@@H]2CCCN(C(=O)CCC3CCNCC3)C2)cc1.Cl | 82 °C | –
Cl.O=C(O)CCNC(=O)CC1CCCN(C(=O)C=C2CCNCC2)C1 (centres unmarked) | 63 °C | –
C#C[C@H](CC(=O)OCc1oc(=O)oc1C)NC(=O)[C@@H]1CCCN(C(=O)CCC2CCNCC2)C1.Cl | 70 °C | –
COC(=O)CCNC(=O)CC1CCCN(C(=O)C=C2CCN(C(=O)OC(C)(C)C)CC2)C1 (centres unmarked) | 121 °C | –
COC(=O)C[C@H](N)C(=O)NC1CCCN(C(=O)CCC2CCN(C(=O)OCc3ccccc3)CC2)C1.Cl (some centres unmarked) | 75 °C | –
Cl.O=C(O)CCNC(=O)[C@@H]1CCCN(C(=O)CCC2CCNCC2)C1 [Example 21 (3), N-[(R)-1-{3-(4-piperidyl)propionyl}-3-piperidylcarbonyl]-β-alanine hydrochloride] | 84 °C | 1000 nM

Reference: patent US6380215B1, “Beta-alanine derivative and a process for the preparation thereof” (Fujisawa Pharmaceutical Co., Ltd, priority 1993, dated 2002)
